Reference: the NIST ThermoML archive (doi:10.1016/j.jct.2009.07.002)

Test: isobaric coefficient of expansion
Details: Liquid, DSC with Pressure Shift

CCCCCCO [hexan-1-ol]
isobaric coefficient of expansion
Details	278.15 K	288.15 K	298.15 K	308.15 K	318.15 K	328.15 K	338.15 K	348.15 K
5000 kPa	0.000821 1/K	0.000837 1/K	0.00085 1/K	0.000875 1/K	0.000898 1/K	0.000929 1/K	0.000958 1/K	0.000995 1/K
10000 kPa	0.0008 1/K	0.000819 1/K	0.000832 1/K	0.000853 1/K	0.000877 1/K	0.0009 1/K	0.000929 1/K	0.00096 1/K
15000 kPa	0.000788 1/K	0.000802 1/K	0.000812 1/K	0.000834 1/K	0.000854 1/K	0.000876 1/K	0.000903 1/K	0.000929 1/K
20000 kPa	0.000778 1/K	0.000786 1/K	0.000796 1/K	0.000815 1/K	0.000833 1/K	0.000854 1/K	0.00088 1/K	0.000903 1/K
25000 kPa	0.00076 1/K	0.000772 1/K	0.00078 1/K	0.000796 1/K	0.000812 1/K	0.000833 1/K	0.000854 1/K	0.000875 1/K
30000 kPa	0.000748 1/K	0.000756 1/K	0.000764 1/K	0.000779 1/K	0.000794 1/K	0.000813 1/K	0.000832 1/K	0.000852 1/K
35000 kPa	0.000733 1/K	0.000743 1/K	0.000749 1/K	0.000763 1/K	0.000778 1/K	0.000794 1/K	0.000813 1/K	0.000831 1/K
40000 kPa	0.000723 1/K	0.000731 1/K	0.000734 1/K	0.000747 1/K	0.000758 1/K	0.000776 1/K	0.000791 1/K	0.000808 1/K
45000 kPa	0.000716 1/K	0.00072 1/K	0.000724 1/K	0.000733 1/K	0.000745 1/K	0.000759 1/K	0.000776 1/K	0.000791 1/K
50000 kPa	0.000708 1/K	0.000703 1/K	0.000712 1/K	0.000721 1/K	0.000729 1/K	0.000745 1/K	0.000758 1/K	0.000772 1/K
55000 kPa	0.000699 1/K	0.000696 1/K	0.0007 1/K	0.000709 1/K	0.000719 1/K	0.000731 1/K	0.000744 1/K	0.000754 1/K

CCCCCCCCCCO [decan-1-ol]
isobaric coefficient of expansion
Details	298.15 K	308.15 K	318.15 K	328.15 K	338.15 K	348.15 K
5000 kPa	0.000809 1/K	0.000822 1/K	0.000837 1/K	0.00085 1/K	0.000869 1/K	0.000895 1/K
10000 kPa	0.000792 1/K	0.0008 1/K	0.000814 1/K	0.000827 1/K	0.000843 1/K	0.000863 1/K
15000 kPa	0.000776 1/K	0.000784 1/K	0.000795 1/K	0.000803 1/K	0.000819 1/K	0.000832 1/K
20000 kPa	0.000755 1/K	0.000764 1/K	0.000775 1/K	0.000781 1/K	0.000799 1/K	0.000812 1/K
25000 kPa	0.000739 1/K	0.000748 1/K	0.000758 1/K	0.000765 1/K	0.000779 1/K	0.000792 1/K
30000 kPa	0.000725 1/K	0.00073 1/K	0.000743 1/K	0.000748 1/K	0.00076 1/K	0.000775 1/K
35000 kPa	0.000715 1/K	0.000719 1/K	0.000726 1/K	0.000732 1/K	0.000745 1/K	0.000755 1/K
40000 kPa	0.000702 1/K	0.000706 1/K	0.000711 1/K	0.000719 1/K	0.000729 1/K	0.000738 1/K
45000 kPa	0.00069 1/K	0.00069 1/K	0.000699 1/K	0.000704 1/K	0.000713 1/K	0.000722 1/K
50000 kPa	0.000679 1/K	0.00068 1/K	0.000688 1/K	0.000691 1/K	0.000701 1/K	0.000708 1/K
55000 kPa	0.000669 1/K	0.000669 1/K	0.000676 1/K	0.000679 1/K	0.000689 1/K	0.000697 1/K

CCCCCCCO [heptan-1-ol]
isobaric coefficient of expansion
Details	278.15 K	288.15 K	298.15 K	308.15 K	318.15 K	328.15 K	338.15 K	348.15 K
5000 kPa	0.000799 1/K	0.000815 1/K	0.000831 1/K	0.000854 1/K	0.000878 1/K	0.000903 1/K	0.000928 1/K	0.000956 1/K
10000 kPa	0.000779 1/K	0.000798 1/K	0.000811 1/K	0.000832 1/K	0.000854 1/K	0.000876 1/K	0.000901 1/K	0.000927 1/K
15000 kPa	0.000767 1/K	0.000784 1/K	0.000795 1/K	0.000813 1/K	0.000833 1/K	0.000849 1/K	0.000875 1/K	0.000899 1/K
20000 kPa	0.000754 1/K	0.000769 1/K	0.000779 1/K	0.000796 1/K	0.000814 1/K	0.000831 1/K	0.000851 1/K	0.000872 1/K
25000 kPa	0.000741 1/K	0.000757 1/K	0.000762 1/K	0.000776 1/K	0.000792 1/K	0.000811 1/K	0.00083 1/K	0.000848 1/K
30000 kPa	0.000726 1/K	0.000743 1/K	0.000747 1/K	0.000761 1/K	0.000775 1/K	0.000792 1/K	0.000809 1/K	0.000826 1/K
35000 kPa	0.000713 1/K	0.00073 1/K	0.000734 1/K	0.000747 1/K	0.00076 1/K	0.000775 1/K	0.000791 1/K	0.000806 1/K
40000 kPa	0.000697 1/K	0.000716 1/K	0.000716 1/K	0.00073 1/K	0.000742 1/K	0.000756 1/K	0.000769 1/K	0.000786 1/K
45000 kPa	0.00069 1/K	0.000708 1/K	0.000709 1/K	0.000717 1/K	0.00073 1/K	0.00074 1/K	0.000754 1/K	0.000768 1/K
50000 kPa	0.000682 1/K	0.000694 1/K	0.000695 1/K	0.000705 1/K	0.000714 1/K	0.000726 1/K	0.000741 1/K	0.000752 1/K
55000 kPa	0.000673 1/K	0.000686 1/K	0.000684 1/K	0.000693 1/K	0.000703 1/K	0.000715 1/K	0.000725 1/K	0.000737 1/K
